Entries after “also recorded” stand apart in the source; their conditions may differ.
Columns and labels:
[1] = system: Friend virus (FV)-induced erythroleukemia; assay: FV-induced erythroleukemia in FV-infected mice, intraperitoneal treatment; assay type: in vivo, mouse
Source text: FV-induced erythroleukemia and production of FV leukemia stem cells (FV-LSCs): BALB/c mice were infected with FV as previously described (Subramanian A et al., J Virol. 2008; 82:382-393; Harandi O F et al., J Clin Invest. 2010; 120:4507-4519). On day 14 after infection, spleens were isolated and a single cell suspension of spleen cells was generated. The cells were filtered through a 70 μm sterile filter and flow-through cells were resuspended in RBC lysis buffer followed by centrifugation. Leukemia stem cells were isolated by FACS. Spleen cells were labeled with anti-Kit, Sca1 (BioLegend, San Diego, Calif.) and M34 antibodies. M34 is a monoclonal antibody that recognizes the envelope protein of SFFV (Chesebro B et al., Virology. 1981; 112:131-144) and was used as previously described (Subramanian A et al., J Virol. 2008; 82:382-393). As indicated M34^+Kit^+Sca1^+ cells were cultured in Methocult media (Stem Cell Technologies Vancouver BC) M3334 supplemented with 200 ng/ml Sonic Hedgehog (Shh), 15 ng/ml bone morphogenetic protein-4 (BMP4) (both from R&D Systems Minneapolis, Minn.), and 50 ng/ml stem cell factor (SCF; Peprotech). For CFU-FV assays, cells were plated in methylcellulose media containing fetal calf serum, but lacking added growth factors as previously described (Mager D L et al., Proc Natl Acad Sci USA. 1981; 78:1703-1707).
Complete blood counts of mice treated with Δ^12-PGJ3 (0.05 mg/kg) were examined. There is no difference in treated mice and untransplanted control mice in terms of white blood cell counts, red blood cell counts or platelet counts. Changes in hematological parameters in FV-infected mice upon treatment with CyPGs were examined. FV-infected Balb/c mice were treated with Δ^12-PGJ3 (0.05 mg/kg) intraperitoneally for 7 d following which the mice were sacrificed and hematological parameters were analyzed on an Advia blood analyzer. FV-infected Δ^12-PGJ3 treated mice were compared to infected vehicle controls. N=5 per group, all data are means±s.e.m. *P<0.05. 3% w/v hydroxypropyl-3-cyclodextrin was used as a vehicle in in vivo experiments. Spleen sizes of FV-infected mice that were treated with either vehicle, 9,10-dihydro-15d-PGJ2 (0.05 mg/kg), or 15d-PGJ2 (0.05 mg/kg) were examined; N=3 pre group. Hematological parameters of Balb/c uninfected, infected, and 15d-PGJ2 treated mice were examined. N=5 per group. All data were means±s.e.m. *P<0.05.
FV-LSC were targeted by 15d-PGJ2 in the spleen of FV-infected mice. FV-infected mice were treated with 15d-PGJ2 or 9,10-dihydro-15d-PGJ2 at 0.05 mg/kg for 7 d. The splenic LSC (M34^+Sca1^+Kit^+) cells were analyzed by flow cytometry on day 14 post infection. […] Uninfected and infected vehicle controls were used for comparison. N=3; *P<0.05. […] The colonies were counted 10-14 days after plating. N=3 mice per group, *p<0.05.

[2] = system: Human unfractionated bone marrow cells
Description: Human unfractionated bone marrow cells (5×10^5 per well) were plated in methylcellulose complete media containing IL-3, GM-CSF, G-CSF, SCF and Epo supplemented with the indicated concentrations of drugs. Total colonies were counted after 12 days.

[3] = system: MSCV-GFP^+ HSC transplanted mice (steady state hematopoiesis); assay: Control mice transplanted with MSCV-GFP+ HSCs, treated; details: mouse, in vivo
Description: Induction of CML using MIGR-BCR-ABL retrovirus: MIGR-BCR-ABL and control MSCV-GFP retroviruses were obtained. […] C57BL/6 mice were treated with 5-fluorouracil (5-FU; 150 mg/Kg, Sigma, St. Louis, Mo.) to enrich for cycling HSCs. On day four after treatment bone marrow cells were harvested and infected with MIGR-BCR-ABL or MSCV-GFP control virus overnight in IMDM media containing 5% FCS and supplemented with 2.5 ng/ml IL-3 and 15 ng/ml SCF (R&D Systems Minneapolis, Minn.). 0.5×10^6 transduced cells were transplanted by retro-orbital injection into C57BL/6 recipient mice that were preconditioned with 950 Rads of irradiation. In order to increase the number of CML and control mice, 17 days after transplant GFP^+ spleen cells were isolated by FACS and 1×10^5 GFP^+ cells were transplanted into irradiated (950 Rads) secondary C57BL/6 recipients. Two weeks after transplant, mice were treated as indicated with CyPGs and vehicle control. For ex-vivo experiments, Kit^+Sca1^+Lin^−GFP^+ cells were isolated from the bone marrow or spleen of transplanted mice by FACS. The sorted cells were cultured in Methocult media M3334 (Stem Cell Technologies Vancouver BC) M3334 supplemented with Shh, SCF, and BMP4 and treated with the indicated CyPGs and vehicle controls for indicated time periods. […] The hematopoietic colonies (colony forming cells in culture, CFC) were scored. […]

[4] = system: murine erythroleukemia (MEL) cells; assay: MEL cell apoptosis and viability (MTT, CCK-8); assay type: cell-based, mouse
Description: Cell culture. Murine erythroleukemia (MEL) cells were cultured in DMEM with 10% FBS. In order to examine the production 3-series PGs, BALB/c-derived RAW264.7 macrophage-like cells (ATCC) were cultured in DMEM containing 5% FBS, 250 nM sodium selenite, and 50 μM EPA (as BSA conjugate) for 72 h followed by stimulation with E. coli endotoxin lipopolysaccharide (LPS; Serotype 0111B4; 50 ng/ml) for 30 min. The cells were cultured in fresh DMEM for an additional 24-144 h. Cells cultured with cell culture-grade fatty acid free BSA (Sigma Aldrich) served as a control. Culture media was withdrawn at various times and analyzed for 3-series PGs as described below. Total RNA was isolated from cells or tissues using Trizol reagent as per the instructions of the supplier (Invitrogen, Carlsbad, Calif.) and cDNA was prepared using a High Capacity cDNA Reverse Transcriptase kit (Applied Biosystems, Foster City, Calif.). Semiquantitative RT-PCR for p53 and β-actin was performed with primers as described in Supplementary Methods. Nuclear and cytoplasmic protein extracts of LSCs were prepared using standard methods previously described (Vunta H et al., J Biol Chem. 2007; 282:17964-17973).
Cell viability studies. MEL cells were cultured in DMEM containing 10% FBS and treated with various commonly used anti-leukemic drugs such as daunorubicin (DNR), mitoxantrone (MIT), and cytarabine (CYT) at a final concentration […] for 24 h. […] After 24 h of drug treatment, cell proliferation was measured by MTT assay with CCK-8 kit from Dojindo Molecular Technologies, Inc. (Gaithersburg, Md.). All viability values reported are relative to untreated cells (UT) that was designated to be 100%. Results represent the mean±SEM of three independent observations.
In order to address whether MEL cells are resistant in general to chemotherapy agents, we tested whether MEL cells can be killed by apoptosis when treated with standard anti-leukemia drugs. Treatment with various commonly used anti-leukemic drugs such as daunorubicin (DNR), mitoxantrone (MIT), and cytarabine (CYT) at a final concentration 1 μM for 24 h. […] After 24 h of drug treatment, cell proliferation was measured by MTT assay with CCK-8 kit from Dojindo Molecular Technologies, Inc. (Gaithersburg, Md.). […] The results represent the mean±SEM of three independent observations.

[5] = system: FV-LSCs (M34^+Kit^+Sca1^+); assay: Apoptosis of FV-LSCs treated ex vivo (annexin V, flow cytometry); assay type: cell-based, mouse; details: 36 h
Description: Apoptosis of LSCs was performed using annexin V as described below in Supplementary Information and Methods.
On day 14 after infection, spleens were isolated and a single cell suspension of spleen cells was generated. The cells were filtered through a 70 μm sterile filter and flow-through cells were resuspended in RBC lysis buffer followed by centrifugation. Leukemia stem cells were isolated by FACS. Spleen cells were labeled with anti-Kit, Sca1 (BioLegend, San Diego, Calif.) and M34 antibodies. […] As indicated M34^+Kit^+Sca1^+ cells were cultured in Methocult media (Stem Cell Technologies Vancouver BC) M3334 supplemented with 200 ng/ml Sonic Hedgehog (Shh), 15 ng/ml bone morphogenetic protein-4 (BMP4) (both from R&D Systems Minneapolis, Minn.), and 50 ng/ml stem cell factor (SCF; Peprotech).
The LSCs were diluted in DMEM, resuspended using a 16-gauge needle, and collected by centrifugation. 1×10^5 cells were resuspended in 200 μl of binding buffer (0.1 M HEPES with 1.4 M NaCl, 25 mM CaCl2, pH 7.4). Annexin V FITC (BD Biosciences) was incubated with cells for 15 min on ice followed by flow cytometric analysis.
The cells were stained with annexin V-FITC and analyzed by flow cytometry. […] Means±s.e.m. *P<0.001 compared to vehicle (PBS). […] Inset: Effect of rosiglitazone on the apoptosis of LSC. Rosiglitazone (0.1-2.0 μM) was incubated with LSC in the culture media for 36 h as described earlier and the cells were subjected to annexin-V staining followed by flow cytometry. […] LSC were treated ex vivo with indicated concentrations of each compound for 36 h. Mean±s.e.m. shown *P<0.001.

Q: How did the reduction of splenomegaly ([1]; 0.01 mg/kg/day i.p. for 7 days) turn out when CC/C=C\C[C@H](O)C/C=C1/C(=O)C=C[C@@H]1C/C=C\CCCC(=O)O [Δ^12-PGJ3, Δ^12-prostaglandin J3] was run?
A: ~50%

Q: What about the “LSCs (Sca1+Kit+M34+) in the spleen” value ([1]; 0.05 mg/kg i.p. 7 d, flow cytometry day 14 post infection) of the same compound?
A: completely eradicated

Q: What about the splenomegaly ([1]; 0.05 and 0.1 mg/kg/day i.p. for 7 days from day 7 post infection) of the same compound?
A: no signs of splenomegaly

Q: What about the “spleen histology (H&E)” value ([1]; day 14 post infection) of the same compound?
A: better demarcation of peri-arteriolar lymphoid tissue

Q: And the “total leukocyte and reticulocyte counts” value ([1]; i.p. 7 days)?
A: decreased to normal levels

Q: And the “Bax expression in spleen” value ([1]; mouse, in vivo)?
A: activation of Bax expression

Q: What about the “Friend virus viral replication” value ([1]; mouse, in vivo) of the same compound?
A: not the viral replication

Q: And the “TUNEL staining of splenic sections” value ([1]; mouse, in vivo)?
A: increased apoptosis

Q: And the CFU-FV colony formation ([1]; spleen cells of treated mice plated without growth factors)?
A: completely reduced to background levels

Q: What about the “p53 expression in total spleen” value ([1]; treated for 1 week) of the same compound?
A: significant expression of p53 in the spleen

Q: And the “total colonies of human bone marrow cells” value [2]?
A: had no effect

Q: And the “WBC counts, other hematological parameters, survival” value [3]?
A: had no effect on WBC counts or other hematological parameters or survival

Q: And the “apoptosis of MEL cells (lack functional p53)” value [4]?
A: cannot induce apoptosis; also recorded: failed to initiate apoptosis

Q: What about the “increase in apoptosis of FV-LSCs” value ([5]; 25 nM) of the same compound?
A: ~75%

Q: What about the “apoptosis of FV-LSCs, dose response” value ([5]; annexin V) of the same compound?
A: identical effect
